Reference: patent US20050113309A1, “Crystalline forms(2s)-n-5[amino(imino)methyl]-2-thienylmethyl-1-(2r)-2[(carboxymethyl) amino]-3,3-diphenylpropanoyl-2-pyrrolidinecarboxamide nh2o” (priority 2002, published 2005)
Entries after “also recorded” stand apart in the source; their conditions may differ.

Assays:
[1] = Stress stability test (storage at −20° C., 50° C., 70° C. for 4 weeks); format: physicochemical; settings: for Discoloration / change in appearance: 4 weeks' storage; for Color / Stability compared with the amorphous form: stress stability test; for Color: temperature not given (change in appearance at 70° C.)
Description: In order to compare physicochemical stability among the crystalline Form VI, the crystalline Form I, and the amorphous form prepared in Examples 7, 8, and Comparative Example 1, the stress stability test was conducted by placing their samples at the temperatures of −20° C., 50° C., and 70° C. for 4 weeks.

[2] = Powder X-ray diffraction during moisture absorption and dehumidification (crystal form stability to relative humidity); format: physicochemical; settings: moisture absorption / relative humidity 33-93%
Description: 40 mg of the above crystalline Form I was thinly coated onto a sample holder. And, immediately after the sample was dried under vacuum in the presence of P2O5, and after the sample was placed for moisture absorption at each relative humidity of 33%, 53%, 64%, 75%, and 93% for two days or more, respectively, the powder X-ray diffraction test was conducted on the sample according to the conditions represented in above Test example 1 to observe change of the crystalline formi during moisture absorption. While lowering the relative humidity, the same test was repeated to observe change of the crystalline form during dehumidification.
In order to obtain each relative humidity above, as shown in the table below, saturated aqueous solutions of salts were prepared, then placed in a desiccator, and the desiccator was sealed.
40 mg of the above crystalline Form IV was thinly coated onto a sample holder. Immediately after the sample was dried under vacuum in the presence of P2O5, and after the sample was placed for moisture absorption at each relative humidity of 33%, 53%, 64%, 75%, and 93% for two days or more, respectively, the powder X-ray diffraction test of the sample was conducted according to the conditions represented in Test example 1 above to observe change of the crystalline form during moisture absorption. While lowering the relative humidity, the same test was repeated to observe change of the crystalline form during dehumidification.
In order to obtain each relative humidity above, as shown in Table 3 of Test example 2, saturated aqueous solutions of salts were prepared and then placed in a desiccator, and the desiccator was sealed.

Residual rate after 4 weeks ([1]; 50° C., 4 weeks) | Residual rate after 4 weeks ([1]; 50° C., 4 weeks, listed as amorphous form) | Residual rate after 4 weeks ([1]; 70° C., 4 weeks) | Discoloration / change in appearance ([1]; 70° C.) | Residual rate after 4 weeks ([1]; 70° C., 4 weeks, listed as amorphous form) | Color ([1]; 4 weeks) | Change in appearance ([1]; −20° C. and 50° C., 4 weeks) | Residual rate after 4 weeks ([1]; −20° C., 4 weeks) | Residual rate after 4 weeks ([1]; −20° C., 4 weeks, listed as amorphous form) | Change of crystal structure / crystalline form with relative humidity [2] | SMILES | Stability compared with the amorphous form ([1]; 4 weeks)
– | – | – | stable without discoloration | – | – | – | – | – | – | N=C(N)c1ccc(CNC(=O)[C@@H]2CCCN2C(=O)[C@H](NCC(=O)O)C(c2ccccc2)c2ccccc2)s1 [Form IV, (2S)-N-5-[amino(imino)methyl]-2-thienylmethyl-1-(2R)-2-[(carboxymethyl)amino]-3,3-diphenylpropanoyl-2-pyrrolidinecarboxamide] | –
– | – | – | – | – | – | – | – | – | changed into the crystalline Form VI | N=C(N)c1ccc(CNC(=O)[C@@H]2CCCN2C(=O)[C@H](NCC(=O)O)C(c2ccccc2)c2ccccc2)s1 [Form V, (2S)-N-5-[amino(imino)methyl]-2-thienylmethyl-1-(2R)-2-[(carboxymethyl)amino]-3,3-diphenylpropanoyl-2-pyrrolidinecarboxamide] | –

The next lines start with the compound.

SMILES | Residual rate after 4 weeks ([1]; 50° C., 4 weeks) | Residual rate after 4 weeks ([1]; 50° C., 4 weeks, listed as amorphous form) | Residual rate after 4 weeks ([1]; 70° C., 4 weeks) | Discoloration / change in appearance ([1]; 70° C.) | Residual rate after 4 weeks ([1]; 70° C., 4 weeks, listed as amorphous form) | Color ([1]; 4 weeks) | Change in appearance ([1]; −20° C. and 50° C., 4 weeks) | Residual rate after 4 weeks ([1]; −20° C., 4 weeks) | Residual rate after 4 weeks ([1]; −20° C., 4 weeks, listed as amorphous form) | Change of crystal structure / crystalline form with relative humidity [2] | Stability compared with the amorphous form ([1]; 4 weeks)
N=C(N)c1ccc(CNC(=O)[C@@H]2CCCN2C(=O)[C@H](NCC(=O)O)C(c2ccccc2)c2ccccc2)s1 [Amorphous form, (2S)-N-5-[amino(imino)methyl]-2-thienylmethyl-1-(2R)-2-[(carboxymethyl)amino]-3,3-diphenylpropanoyl-2-pyrrolidinecarboxamide] | 96% | 96% | 87% | discoloration; also recorded: change in appearance | 87% | Yellow | did not show any change in appearance | 96% | 96% | – | –
N=C(N)c1ccc(CNC(=O)[C@@H]2CCCN2C(=O)[C@H](NCC(=O)O)C(c2ccccc2)c2ccccc2)s1 [Form I, (2S)-N-5-[amino(imino)methyl]-2-thienylmethyl-1-(2R)-2-[(carboxymethyl)amino]-3,3-diphenylpropanoyl-2-pyrrolidinecarboxamide] | 99% | – | 100% | stable without discoloration | – | Ivory | – | 99% | – | – | remarkably superior stability over the amorphous form
N=C(N)c1ccc(CNC(=O)[C@@H]2CCCN2C(=O)[C@H](NCC(=O)O)C(c2ccccc2)c2ccccc2)s1 [Form II, (2S)-N-5-[amino(imino)methyl]-2-thienylmethyl-1-(2R)-2-[(carboxymethyl)amino]-3,3-diphenylpropanoyl-2-pyrrolidinecarboxamide] | – | – | – | – | – | – | – | – | – | changed to the crystalline Form III | –
N=C(N)c1ccc(CNC(=O)[C@@H]2CCCN2C(=O)[C@H](NCC(=O)O)C(c2ccccc2)c2ccccc2)s1 [Form VI, (2S)-N-5-[amino(imino)methyl]-2-thienylmethyl-1-(2R)-2-[(carboxymethyl)amino]-3,3-diphenylpropanoyl-2-pyrrolidinecarboxamide] | 99% | – | 100% | – | – | Ivory | – | 101% | – | crystal structure is not changed under any relative humidity | remarkably superior stability over the amorphous form
